From ChEMBL document CHEMBL5620351, “Advancing beyond reverse transcriptase inhibitors: The new era of hepatitis B polymerase inhibitors” (Eur J Med Chem, 2023)

How the values were obtained:
[1] = system: Hepatitis B virus; test: Antiviral activity against lamivudine-resistant HBV infected in human HepG2 cells assessed as reduction in HBV DNA replication by RT-PCR analysis; format: functional, organism-based
[2] = system: Hepatitis B virus; test: Antiviral activity against HBV infected in human HepG2.2.15.7 cells assessed as reduction in HBV DNA replication by TR-PCR analysis; format: functional, organism-based
[3] = system: Hepatitis B virus; test: Antiviral activity against wild type HBV infected in human HepG2 cells assessed as reduction in HBV DNA replication by RT-PCR analysis; format: functional, organism-based
[4] = system: Hepatitis B virus; test: Antiviral activity against HBV infected in human HepDES19 cells assessed as reduction in HBV replication; format: functional, organism-based
[5] = system: Hepatitis B virus; test: Antiviral activity against HBV transfected in human HB611 cells; format: functional, organism-based
[6] = Inhibition of HBV RNA polymerase; parameters: species or system Hepatitis B virus
[7] = system: Hepatitis B virus; test: Antiviral activity against HBV transfected in human HB611 cells assessed as reduction of HBV DNA replication incubated for 5 days by q-PCR analysis; format: functional, organism-based; details: HB611, 120 h
[8] = Cytotoxicity against human HB611 cells assessed as reduction in cell viability incubated for 6 to 9 days by celltiter-glo assay; format: functional; details: time 6-9 day
[9] = system: Hepatitis B virus; test: Antiviral activity against HBV infected in human HepG2 2.2.15 cells assessed as reduction on HBsAg level incubated for 5 days; format: functional; parameters: concentration or dose not given beside the values; details: time 5 day
[10] = system: Hepatitis B virus; test: Antiviral activity against HBV infected in human HepDES19 cells assessed as inhibition of HBV replication by qPCR analysis; format: functional, organism-based
[11] = system: Hepatitis B virus; test: Antiviral activity against HBV infected in human HepG2-hNTCP cells assessed as reduction in HBV DNA replication by qRT-PCR analysis; format: functional, organism-based
[12] = Cytotoxicity against human HepG2-hNTCP cells assessed as reduction in cell viability incubated for 3 days by celltiter glo assay; format: functional; details: 72 h, time 3 day
[13] = Cytotoxicity against human HB611 cells assessed as reduction in cell viability incubated for 3 days by celltiter glo assay; format: functional; details: HB611, 72 h, time 3 day
[14] = system: Hepatitis B virus; test: Antiviral activity against HBV C2 infected in human Huh-7 cells assessed as reduction in HBV DNA production by real-time qPCR analysis; format: functional, organism-based; details: C2, Huh-7
[15] = system: Hepatitis B virus; test: Antiviral activity against entecavir-resistant HBV infected in human Huh-7 cells assessed as reduction in HBV DNA production by real-time qPCR analysis; format: functional, organism-based
[16] = system: Hepatitis B virus; test: Antiviral activity against adefovir-resistant HBV infected in human Huh-7 cells assessed as reduction in HBV DNA production by real-time qPCR analysis; format: functional, organism-based
[17] = system: Huh-7; test: Cytotoxicity against human Huh-7 cells assessed as reduction in cell viability by MTT assay; format: functional
[18] = system: Hepatitis B virus; test: Antiviral activity against HBV D1 infected in human HepG2.2.15 cells assessed as reduction in HBV DNA production by real-time qPCR analysis; format: functional, organism-based; details: D1, HepG2.2.15
[19] = system: Hepatitis B virus; test: Antiviral activity against HBV infected in human HePAD38 cells assessed as reduction in HBV replication by qPCR analysis; format: functional, organism-based
[20] = Cytotoxicity against human HepAD38 cells assessed as reduction in cell viability incubated for 4 days by XTT assay; format: functional; details: HePAD38, 96 h, time 4 day
[21] = system: Hepatitis B virus; test: Antiviral activity against HBV infected in human HepDES19 cells assessed as inhibition of extracellular HBV DNA by qPCR analysis; format: functional, organism-based
[22] = Cytotoxicity against human HEK293 cells assessed as reduction in cell viability incubated for 1 hr by MTS assay; format: toxicity, cell-based
[23] = Cytotoxicity against human HepDES19 cells assessed as reduction in cell viability incubated for 1 hr by MTS assay; format: functional
[24] = system: Hepatitis B virus; test: Antiviral activity against HBV infected in human Hep38.7-TeT cells assessed as inhibition of extracellular HBV DNA by real-time qPCR analysis; format: functional, organism-based
[25] = system: HepG2; test: Cytotoxicity against human HepG2 cells assessed as cell viability incubated for 12 days by WST-1 assay; format: functional; details: HepG2, 288 h, time 12 day
[26] = system: HepG2; test: Cytotoxicity against human HepG2 cells assessed as reduction in cell viability in presence of lamivudine by MTS assay; format: functional
[27] = system: HepG2; test: Cytotoxicity against human HepG2 cells assessed as reduction in cell viability by MTS assay; format: functional

With `Clc1ccc(/C=C/c2cc(Cl)cc(Cl)c2)cc1` the EC50 [1] was 16.4 µM, the EC50 [2] was 14.4 µM and the EC50 [3] was 13.3 µM.
Molecule `CC(=NOCc1ccc(F)cc1)c1c(C)cc(=O)n(O)c1O` has an EC50 [4] of 0.11 µM.
In the case of `NC(Cc1cc(O)c(O)cc1O)C(=O)O` (stereo unspecified), the EC50 [5] is reported as 16.1 µM, the IC50 [6] is reported as 6.6 µM and the IC50 [7] is reported as 21 µM. It also gave a CC50 [8] of 66 µM.
In the case of `C/C=C(\C)C(=O)O[C@H]1C[C@@H](OC(C)=O)[C@@]2(C(=O)OC)CO[C@H]3[C@@H](O)[C@@](C)([C@]45O[C@@]4(C)[C@H]4C[C@@H]5O[C@@H]5OC=C[C@@]54O)[C@H]4[C@]1(CO[C@]4(O)C(=O)OC)[C@@H]32` [AZADIRACTIN], the Activity [9] is reported as 62%.
For `COc1ccc2c(c1)C(=O)N(O)C(=O)C2C(=O)NCc1ccc(F)cc1` (stereo unspecified), the EC50 [10] was 0.69 µM.
`O=C(NCc1ccc(F)cc1)C1C(=O)N(O)C(=O)c2ccc(O)nc21` (stereo unspecified) showed an EC50 [4] of 2.4 µM.
In the case of `CC(=NOCc1ccccc1N)c1c(C)cc(=O)n(O)c1O`, the EC50 [4] is reported as 0.11 µM.
For `O=C(NCc1ccc(F)cc1)C1C(=O)N(O)C(=O)c2cc(Cl)ccc21` (stereo unspecified), the EC50 [10] was 0.69 µM.
For `N#C/C=C1/C=C[C@@H](O)C[C@H]1O[C@@H]1O[C@H](CO)[C@@H](O)[C@H](O)[C@H]1O`, the Activity [9] was 62%.
For `N=C(N)SCCc1ccc(OCc2ccc([N+](=O)[O-])cc2)cc1`, the IC50 [11] was 7.31 µM, the CC50 [12] was 37.4 µM and the CC50 [13] was 41.9 µM.
`Oc1cc(O)cc(/C=C/c2ccc(O)c(O)c2)c1` [PICEATANNOL] showed an EC50 [2] of 96.2 µM.
Molecule `N#C[C@]1(CO)/C(=C\F)[C@@H](n2cnc3c(=O)[nH]c(N)nc32)C[C@@H]1O` has an IC50 [14] of 0.7 µM, an IC50 [15] of 77.5 µM and an IC50 [16] of 14.1 µM. The CC50 [17] was 169 µM and the IC50 [18] was 1.8 µM.
In the case of `CC(=NOc1ccccc1)c1c(C)cc(=O)n(O)c1O`, the EC50 [4] is reported as 0.11 µM.
Molecule `O=c1cc(Nc2cccc(-c3ccc(F)cc3)c2)[nH]c(=O)n1O` has an IC50 [19] of 5.5 µM and a CC50 [20] greater than 100 µM.
`COC(=O)c1c2c(cc(O)c(=O)c1O)COC2=O` gave an EC50 [21] of 0.5 µM, a CC50 at 1 h [22] greater than 100 µM and a CC50 [23] greater than 77 µM.
`COc1ccccc1CON=C(C)c1c(C)cc(=O)n(O)c1O` gave an EC50 [4] of 0.11 µM.
For `O=C(/C=C/c1ccc(O)c(O)c1)O[C@H](Cc1ccc(O)c(O)c1)C(=O)O` [ROSMARINIC ACID], the EC50 [24] was 30 µM.
Molecule `CC(=NOCc1ccccc1)c1c(C)cc(=O)n(O)c1O` has an EC50 [4] of 0.11 µM.
`COC(=O)C1C(=O)N(O)C(=O)c2cc(NC(=O)c3ccccc3)ccc21` (stereo unspecified) gave an EC50 [4] of 2.4 µM.
`O=C(CCc1ccc(O)c(O)c1)OCCc1ccc(O)c(O)c1` gave a CC50 [25] of 229 µM.
With `COc1ccc(-c2cccc(Nc3cc(=O)n(O)c(=O)[nH]3)c2)cc1` the IC50 [19] was 8 µM and the CC50 [20] was greater than 100 µM.
`COC(=O)C1C(=O)N(O)C(=O)c2ccccc21` (stereo unspecified) showed an EC50 [10] of 0.69 µM.
With `O=C(NCc1ccccc1)C1C(=O)N(O)C(=O)c2ccccc21` (stereo unspecified) the EC50 [10] was 0.69 µM.
Work on `O=C1Cc2ccccc2C(=O)N1O` yielded a CC50 [26] greater than 100 µM, a CC50 [27] greater than 100 µM and an EC50 [10] of 0.69 µM.
Molecule `Cc1ccc(C(=O)Nc2ccc(S(=O)(=O)O)c3cc(S(=O)(=O)O)cc(S(=O)(=O)O)c23)cc1NC(=O)c1cccc(NC(=O)Nc2cccc(C(=O)Nc3cc(C(=O)Nc4ccc(S(=O)(=O)O)c5cc(S(=O)(=O)O)cc(S(=O)(=O)O)c45)ccc3C)c2)c1` [SURAMIN] has an IC50 [11] of 0.27 µM, a CC50 [12] of 200 µM and a CC50 [13] of 168 µM.
In the case of `NC(=O)C(Cc1ccc(O)c(O)c1)OC(=O)/C=C/c1ccc(O)c(O)c1` (stereo unspecified), the CC50 [25] is reported as 229 µM.
For `CCNC(=O)C1C(=O)N(O)C(=O)c2ccc(OC)nc21` (stereo unspecified), the EC50 [4] was 2.4 µM.
